Experimental findings from patent US8486991B2, “Enantiomerically pure phosphoindoles as HIV inhibitors” (Idenix Pharmaceuticals, Inc., priority 2006, dated 2013) are described below.

The structures appear in SMILES notation. Where two headings read alike, the source gives them in different places.

The data set can be described thus: In vivo pharmacokinetics, rats. Details: species or system rat. Conditions: plasma. The method, then:
All animals received a single oral or intravenous dose of compound in either polyethylene glycol 400 (PEG400) or a mixture of 10% ethanol (EtOH), 10% dimethylacetamine (DMA) and 80% PEG400 at the indicated dose level. Plasma concentration data were acquired using sensitive and specific LC-MS/MS methods. Pharmacokinetic data from the toxicity study included aspects of gender differences, variability and exposure.
Blood samples (1.5-2.5 mL) were collected in heparinized tubes at 0 (pre-dose), 5 (IV only), 10, 20, 30 min, 1, 2, 4, 6, 8, 12 (PO only) and 24 hr after dosing. Plasma was separated and stored at −70° C. until analysis.
Concentrations of unlabeled compound I and compound III within plasma samples and excreta from rat, dog and monkey PK studies were identified through high performance liquid chromatographic (HPLC) methods that incorporated tandem mass spectrometric detection (LC-MS/MS).
The absolute oral bioavailability was determined in pharmacokinetic by comparison of AUC values of parent compound following single intravenous and oral doses of in rats (compound III only), dogs and monkeys.

What is called Tmax is the time at which the peak concentration occurs. In general, bioavailability refers to dose-corrected exposure relative to a reference, in per cent. As to `CO[P@](=O)(c1cc(C)cc(/C=C/C#N)c1)c1c(C(N)=O)[nH]c2ccc(Cl)cc12` [Compound III, (2-Carbamoyl-5-chloro-1H-indol-3-yl)-[3-((E)-2-cyano-vinyl)-5-methyl-phenyl]-(R)-phosphinic acid methyl ester], the Tmax (male, Rat, 10 mg/kg PO-Fasted, 3M, mean) was found to be 24 min. Besides, the bioavailability (male, Rat, 10 mg/kg PO-Fasted, 3M, IV 2 mg/kg, read-out: BA (absolute oral bioavailability)) is 38% and the bioavailability (rat, po, text b979, (5 mg/kg), read-out: oral bioavailability in rats, exploratory PK studies) is 38%.
